Assay results reported in patent US20260274892A1, “MACROCYCLIC BROAD SPECTRUM ANTIBIOTICS” (RQx Pharmaceuticals, Inc., priority 2017, published 2026).

Tested on: Escherichia coli ATCC 25922
Experiment: Minimum inhibitory concentration (MIC), CLSI broth micro-dilution, E. coli
Format: cell-based
Conditions: Escherichia coli, ATCC25922, 22 h, Table 6, cation adjusted Mueller Hinton Broth + 0.002% Tween-80, 35° C.
Description: In vitro antimicrobial activity of each compound was determined by measuring minimal inhibitor concentrations (MICs) using the broth micro-dilution technique as approved by the Clinical and Laboratory Standards Institute (CLSI) (Methods for Dilution Antimicrobial Susceptibility Tests for Bacteria that Grow Aerobically; Approved Standard-Eighth Edition. CLSI document M07-A8. Wayne, PA: Clinical and Laboratroy Standards; 2009). Antibacterial activity was measure against two strains of bacteria: a Methicillin Resistant Staphylococcus aureus strain USA 200, (S. aureus) and Escherichia coli ATCC 25922 (E. coli), a clinically relevant Gram-negative strain. Cells were inoculated onto plates of Trypyticase Soy Agar or Luria Agar respectively and grown at 35° C. for 20 hours. Inocula suspensions were prepared by scraping cells into 1 mL of testing media (cation adjusted Mueller Hinton Broth supplemented with 0.002% v/v Tween-80) and diluting to a final OD600nm of 0.01.
Test compounds were prepared in DMSO at a concentration of 10 mg/mL. In protocol 1, the compound stocks were diluted into testing media at a concentration of 64 µg/ml and serial 2-fold dilutions were made in the same media, in 96-well U bottom microtiter dishes, for a total of 10 compound concentrations. In protocol 2, the compound stocks were diluted into testing media at a concentration of 4 µg/mL and serial 2-fold dilutions were made in the same media, in 96-well U bottom microtiter dishes, for a total of 10 compound concentrations. In protocol 3, compound stocks were diluted into testing media at a concentration of 0.5 μg/mL, with serial 2-fold dilutions conducted as described above. In protocol 4, compound stocks were diluted into testing media at a concentration of […], with serial 2-fold dilutions conducted as described above. Inocula suspensions were added to the 2-fold serial dilutions of test compounds to a final density of GD OD600nm of 0.0005 and incubated at 35° C. for 22 hours.

MIC	SMILES
0.5 µM	Cc1nc(-c2ccc(C3CCCC3)cc2)nc(C)c1C(=O)N[C@@H](CCN)C(=O)N(C)[C@@H]1C(=O)N[C@@H](C)C(=O)N[C@H](C(=O)NCC#N)Cc2ccc(OCCN)c(c2)-c2cc1ccc2OCCN (racemic) [Compound 302, rac-(8S,11S,14S)-3,18-bis(2-aminoethoxy)-N-(cyanomethyl)-11-methyl-14-[methyl-[rac-(2S)-4-amino-2-[[2-(4-cyclopentylphenyl)-4,6-dimethyl-pyrimidine-5-carbonyl]amino]butanoyl]amino]-10,13-dioxo-9,12-diazatricyclo[13.3.1.12,6]icosa-1(18),2(20),3,5,15(19),16-hexaene-8-carboxamide]
0.13 µM	Cc1nc(-c2ccc(C3=CCCCC3)cc2)nc(C)c1C(=O)N[C@@H](CCN)C(=O)N(C)[C@@H]1C(=O)N[C@@H](C)C(=O)N[C@H](C(=O)NCC#N)Cc2ccc(OCCN)c(c2)-c2cc1ccc2OCCN (racemic) [Compound 303, rac-(8S,11S,14S)-3,18-bis(2-aminoethoxy)-N-(cyanomethyl)-11-methyl-14-[methyl-[rac-(2S)-4-amino-2-[[2-[4-(cyclohexen-1-yl)phenyl]-4,6-dimethyl-pyrimidine-5-carbonyl]amino]butanoyl]amino]-10,13-dioxo-9,12-diazatricyclo[13.3.1.12,6]icosa-1(18),2(20),3,5,15(19),16-hexaene-8-carboxamide]

Same assay, conditions: Escherichia coli, ATCC25922, Table 6, cation adjusted Mueller Hinton Broth + 0.002% Tween-80, 35° C., 22 hours

SMILES	MIC
Cc1cc(C(C)(C)C)ccc1-c1ccc(C(=O)N[C@@H](CCN)C(=O)N(C)[C@@H]2C(=O)N[C@@H](C)C(=O)N[C@H](C(=O)NCC#N)Cc3ccc(OCCN)c(c3)-c3cc2ccc3OCCN)c(C)n1 (racemic) [Compound 210, rac-(8S,11S,14S)-3,18-bis(2-aminoethoxy)-N-(cyanomethyl)-11-methyl-14-[methyl-[rac-(2S)-4-amino-2-[[6-(4-tert-butyl-2-methyl-phenyl)-2-methyl-pyridine-3-carbonyl]amino]butanoyl]amino]-10,13-dioxo-9,12-diazatricyclo[13.3.1.12,6]icosa-1(18),2(20),3,5,15(19),16-hexaene-8-carboxamide]	0.35 µM
Cc1nc(-c2ccc(C3(C(F)(F)F)CC3)cc2)ccc1C(=O)N[C@@H](CCN)C(=O)N(C)[C@@H]1C(=O)N[C@@H](C)C(=O)N[C@H](C(=O)NCC#N)Cc2ccc(OCCN)c(c2)-c2cc1ccc2OCCN (racemic) [Compound 211, rac-(8S,11S,14S)-3,18-bis(2-aminoethoxy)-N-(cyanomethyl)-11-methyl-14-[methyl-[rac-(2S)-4-amino-2-[[2-methyl-6-[4-[1-(trifluoromethyl)cyclopropyl]phenyl]pyridine-3-carbonyl]amino]butanoyl]amino]-10,13-dioxo-9,12-diazatricyclo[13.3.1.12,6]icosa-1(18),2(20),3,5,15(19),16-hexaene-8-carboxamide]	0.17 µM
Cc1cc(-c2ccc(C(C)(C)C)cc2)ncc1C(=O)N[C@@H](CCN)C(=O)N(C)[C@@H]1C(=O)N[C@@H](C)C(=O)N[C@H](C(=O)NCC#N)Cc2ccc(OCCN)c(c2)-c2cc1ccc2OCCN (racemic) [Compound 215, rac-(8S,11S,14S)-3,18-bis(2-aminoethoxy)-N-(cyanomethyl)-11-methyl-14-[methyl-[rac-(2S)-4-amino-2-[[6-(4-tert-butylphenyl)-4-methyl-pyridine-3-carbonyl]amino]butanoyl]amino]-10,13-dioxo-9,12-diazatricyclo[13.3.1.12,6]icosa-1(18),2(20),3,5,15(19),16-hexaene-8-carboxamide]	0.13 µM
Cc1nc(-c2ccc(CC(C)(C)C)cc2)ncc1C(=O)N[C@@H](CCN)C(=O)N(C)[C@@H]1C(=O)N[C@@H](C)C(=O)N[C@H](C(=O)NCC#N)Cc2ccc(OCCN)c(c2)-c2cc1ccc2OCCN (racemic) [Compound 226, rac-(8S,11S,14S)-3,18-bis(2-aminoethoxy)-N-(cyanomethyl)-11-methyl-14-[methyl-[rac-(2S)-4-amino-2-[[2-[4-(2,2-dimethylpropyl)phenyl]-4-methyl-pyrimidine-5-carbonyl]amino]butanoyl]amino]-10,13-dioxo-9,12-diazatricyclo[13.3.1.12,6]icosa-1(18),2(20),3,5,15(19),16-hexaene-8-carboxamide]	0.099 µM
Cc1nc(C#CC(C)(C)C)ncc1C(=O)N[C@@H](CCN)C(=O)N(C)[C@@H]1C(=O)N[C@@H](C)C(=O)N[C@H](C(=O)NCC#N)Cc2ccc(OCCN)c(c2)-c2cc1ccc2OCCN (racemic) [Compound 228, rac-(8S,11S,14S)-3,18-bis(2-aminoethoxy)-N-(cyanomethyl)-11-methyl-14-[methyl-[rac-(2S)-4-amino-2-[[2-(3,3-dimethylbut-1-ynyl)-4-methyl-pyrimidine-5-carbonyl]amino]butanoyl]amino]-10,13-dioxo-9,12-diazatricyclo[13.3.1.12,6]icosa-1(18),2(20),3,5,15(19),16-hexaene-8-carboxamide]	2.3 µM
CCCCCOc1ccc(-c2ncc(C(=O)N[C@@H](CCN)C(=O)N(C)[C@@H]3C(=O)N[C@@H](C)C(=O)N[C@H](C(=O)NCC#N)Cc4ccc(OCCN)c(c4)-c4cc3ccc4OCCN)c(C)n2)cc1 (racemic) [Compound 241, rac-(8S,11S,14S)-3,18-bis(2-aminoethoxy)-N-(cyanomethyl)-11-methyl-14-[methyl-[rac-(2S)-4-amino-2-[[4-methyl-2-(4-pentoxyphenyl)pyrimidine-5-carbonyl]amino]butanoyl]amino]-10,13-dioxo-9,12-diazatricyclo[13.3.1.12,6]icosa-1(18),2(20),3,5,15(19),16-hexaene-8-carboxamide]	0.097 µM
Cc1nc(-c2ccc(OCC(C)(C)C)cc2)ncc1C(=O)N[C@@H](CCN)C(=O)N(C)[C@@H]1C(=O)N[C@@H](C)C(=O)N[C@H](C(=O)NCC#N)Cc2ccc(OCCN)c(c2)-c2cc1ccc2OCCN (racemic) [Compound 252, rac-(8S,11S,14S)-3,18-bis(2-aminoethoxy)-N-(cyanomethyl)-11-methyl-14-[methyl-[rac-(2S)-4-amino-2-[[2-[4-(2,2-dimethylpropoxy)phenyl]-4-methyl-pyrimidine-5-carbonyl]amino]butanoyl]amino]-10,13-dioxo-9,12-diazatricyclo[13.3.1.12,6]icosa-1(18),2(20),3,5,15(19),16-hexaene-8-carboxamide]	0.097 µM
Cc1nc(-c2ccc(C3(C4CCCC4)CC3)cc2)nc(C)c1C(=O)N[C@@H](CCN)C(=O)N(C)[C@@H]1C(=O)N[C@@H](C)C(=O)N[C@H](C(=O)NCC#N)Cc2ccc(OCCN)c(c2)-c2cc1ccc2OCCN (racemic) [Compound 286, rac-(8S,11S,14S)-3,18-bis(2-aminoethoxy)-N-(cyanomethyl)-11-methyl-14-[methyl-[rac-(2S)-4-amino-2-[[2-[4-(1-cyclopentylcyclopropyl)phenyl]-4,6-dimethyl-pyrimidine-5-carbonyl]amino]butanoyl]amino]-10,13-dioxo-9,12-diazatricyclo[13.3.1.12,6]icosa-1(18),2(20),3,5,15(19),16-hexaene-8-carboxamide]	0.13 µM
CCCCc1ccc(-c2nc(C)c(C(=O)N[C@@H](CCN)C(=O)N(C)[C@@H]3C(=O)N[C@@H](C)C(=O)N[C@H](C(=O)NCC#N)Cc4ccc(OCCN)c(c4)-c4cc3ccc4OCCN)c(C)n2)nc1 (racemic) [Compound 293, rac-(8S,11S,14S)-3,18-bis(2-aminoethoxy)-N-(cyanomethyl)-11-methyl-14-[methyl-[rac-(2S)-4-amino-2-[[2-(5-butyl-2-pyridyl)-4,6-dimethyl-pyrimidine-5-carbonyl]amino]butanoyl]amino]-10,13-dioxo-9,12-diazatricyclo[13.3.1.12,6]icosa-1(18),2(20),3,5,15(19),16-hexaene-8-carboxamide]	1.5 µM
Cc1nc(-c2ccc(C(C)(C)C)cc2F)nc(C)c1C(=O)N[C@@H](CCN)C(=O)N(C)[C@@H]1C(=O)N[C@@H](C)C(=O)N[C@H](C(=O)NCC#N)Cc2ccc(OCCN)c(c2)-c2cc1ccc2OCCN (racemic) [Compound 299, rac-(8S,11S,14S)-3,18-bis(2-aminoethoxy)-N-(cyanomethyl)-11-methyl-14-[methyl-[rac-(2S)-4-amino-2-[[2-(4-tert-butyl-2-fluoro-phenyl)-4,6-dimethyl-pyrimidine-5-carbonyl]amino]butanoyl]amino]-10,13-dioxo-9,12-diazatricyclo[13.3.1.12,6]icosa-1(18),2(20),3,5,15(19),16-hexaene-8-carboxamide]	0.38 µM
